Measured values published in the NIST ThermoML archive (doi:10.1021/je050366x).
Several values for one entry are separate records, joined by “and”; a condition that tells them apart may be missing. Equal entries are not always repeated.

Experiment: xn = mol fraction of the nth substance listed
Conditions: for surface tension liquid-gas: Ring tensiometer; for mass density: 100 kPa, Liquid

O=C(O)C(=O)O [ethanedioic acid] + O
x1 = 0.00716
Conditions | surface tension liquid-gas [mN/m]
280.2 K | 73.7
280.5 K | 73.7
281.1 K | 73.8
281.2 K | 73.7
283.9 K | 73.3
284.5 K | 73.2
285.1 K | 73.2
285.7 K | 73
288.2 K | 72.7
288.7 K | 72.4
289.7 K | 72.6
290.1 K | 72.4
292.2 K | 72
293 K | 71.9
293.7 K | 71.9
294.3 K | 71.7
296.2 K | 71.3
297.5 K | 71.2
298 K | 71.2
298.5 K | 71.1
301.2 K | 70.4
302.1 K | 70.6
302.8 K | 70.3
304.7 K | 70

298 K, Pycnometric method
Conditions | mass density [kg/m3]
x1 = 0.002 | 996
x1 = 0.003 | 1001
x1 = 0.005 | 1008
x1 = 0.007 | 1012
x1 = 0.008 | 1016
x1 = 0.01 | 1019
x1 = 0.012 | 1026
x1 = 0.013 | 1030
x1 = 0.015 | 1034

O=C(O)/C=C\C(=O)O [cis-1,4-butenedioic acid] + O
Conditions | surface tension liquid-gas
278.3 K, x1 = 0.012 | 69.9 mN/m
278.7 K, x1 = 0.06 | 64.3 mN/m
279.2 K, x1 = 0.012 | 69.8 mN/m
280.4 K, x1 = 0.06 | 64.4 mN/m
280.5 K, x1 = 0.06 | 64.4 mN/m
283.5 K, x1 = 0.012 | 69.2 mN/m
283.5 K, x1 = 0.06 | 63.7 mN/m
283.7 K, x1 = 0.012 | 69.4 mN/m
284.2 K, x1 = 0.06 | 64 mN/m
284.7 K, x1 = 0.06 | 63.9 mN/m
284.9 K, x1 = 0.06 | 63.5 mN/m
287.4 K, x1 = 0.012 | 68.7 mN/m
287.9 K, x1 = 0.012 | 68.6 mN/m
288.4 K, x1 = 0.06 | 63.4 mN/m
288.6 K, x1 = 0.06 | 63.6 mN/m
288.8 K, x1 = 0.06 | 63.1 mN/m
289.1 K, x1 = 0.06 | 63.2 mN/m
292.8 K, x1 = 0.012 | 68 mN/m and 68.2 mN/m
292.8 K, x1 = 0.06 | 62.8 mN/m
292.9 K, x1 = 0.06 | 62.6 mN/m
293.4 K, x1 = 0.06 | 62.9 mN/m
296.2 K, x1 = 0.06 | 62.1 mN/m
297 K, x1 = 0.012 | 67.5 mN/m
297.1 K, x1 = 0.06 | 62.4 mN/m
297.2 K, x1 = 0.012 | 67.7 mN/m
297.5 K, x1 = 0.012 | 67.6 mN/m
297.7 K, x1 = 0.06 | 62.3 mN/m
298 K, x1 = 0.008 | 68 mN/m
298 K, x1 = 0.0116 | 67.6 mN/m
298 K, x1 = 0.017 | 65.9 mN/m
298 K, x1 = 0.0267 | 64.1 mN/m
298 K, x1 = 0.0374 | 61.4 mN/m
298 K, x1 = 0.0376 | 61.4 mN/m
298 K, x1 = 0.0489 | 62.2 mN/m
298 K, x1 = 0.0579 | 61.2 mN/m
298 K, x1 = 0.06 | 62.3 mN/m
298 K, x1 = 0.0627 | 60.4 mN/m
298 K, x1 = 0.0764 | 58.8 mN/m
298 K, x1 = 0.085 | 60.3 mN/m
298 K, x1 = 0.0932 | 59.7 mN/m
298 K, x1 = 0.1083 | 59.5 mN/m
300.9 K, x1 = 0.06 | 61.4 mN/m
301.2 K, x1 = 0.06 | 61.5 mN/m
301.6 K, x1 = 0.06 | 61.8 mN/m
302 K, x1 = 0.06 | 61.8 mN/m
302.3 K, x1 = 0.012 | 66.9 mN/m
302.7 K, x1 = 0.012 | 66.8 mN/m

298 K, Pycnometric method
Conditions | mass density [kg/m3]
x1 = 0.008 | 1016
x1 = 0.017 | 1031
x1 = 0.027 | 1048
x1 = 0.037 | 1063
x1 = 0.049 | 1084
x1 = 0.062 | 1103
x1 = 0.077 | 1121
x1 = 0.094 | 1135

O=C(O)CC(O)C(=O)O (stereo not given) [hydroxybutanedioic acid] + O
Conditions | mass density [kg/m3] | surface tension liquid-gas [mN/m]
279.3 K, x1 = 0.06 | – | 71
280.5 K, x1 = 0.06 | – | 70.8
281.3 K, x1 = 0.06 | – | 70.6
281.7 K, x1 = 0.06 | – | 70.6
283.6 K, x1 = 0.06 | – | 70.3
283.7 K, x1 = 0.06 | – | 70.1
284.6 K, x1 = 0.06 | – | 70.3
285 K, x1 = 0.06 | – | 70.2
288.3 K, x1 = 0.06 | – | 69.7
288.5 K, x1 = 0.06 | – | 69.5
289.2 K, x1 = 0.06 | – | 69.7
289.3 K, x1 = 0.06 | – | 69.5
292.7 K, x1 = 0.06 | – | 68.7
293.2 K, x1 = 0.06 | – | 68.7
293.4 K, x1 = 0.06 | – | 69.1
293.7 K, x1 = 0.06 | – | 68
297.1 K, x1 = 0.06 | – | 68.2
297.2 K, x1 = 0.06 | – | 67.9
297.6 K, x1 = 0.06 | – | 68.4
297.7 K, x1 = 0.06 | – | 68
298 K, x1 = 0.003 | 1006 | 70.3
298 K, x1 = 0.007 | – | 70.1
298 K, x1 = 0.015 | 1037 | 69.8
298 K, x1 = 0.023 | 1051 | 69.3
298 K, x1 = 0.032 | 1079 | 69.3
298 K, x1 = 0.043 | – | 68.4
298 K, x1 = 0.054 | 1115 | 68.4
298 K, x1 = 0.058 | – | 68.1
298 K, x1 = 0.07 | – | 67.8
298 K, x1 = 0.075 | 1146 | –
298 K, x1 = 0.082 | – | 67.3
298 K, x1 = 0.087 | – | 66.8
298 K, x1 = 0.096 | 1182 | –
298.2 K, x1 = 0.06 | – | 67.8
301.9 K, x1 = 0.06 | – | 67.5
302.1 K, x1 = 0.06 | – | 68.1
302.3 K, x1 = 0.06 | – | 67.9
